We go through 6 molecules from patent publication US20080182125A1, “Cationic latex as a carrier for bioactive ingredients and its use in wallboard manufacture” (priority 2006, published 2008).

Where two headings read alike, the source gives them in different places.

The test system of data set [1] is fungal species. Put plainly: ASTM D-3273 second round test of coated paper, 28 days, spores in humidity chamber. It counts as cell-based. To be noted: increased coating thickness, FIG. 6. As for the experimental part:
FIG. 6 is a graph showing the results of a second round of testing of coated paper samples, tested according to ASTM D-3273 over a period of 28 days. In this study, the fungal species were not directly inoculated on the surface, but rather, were maintained in the humidity chamber as spores that would then land on the surface of the coated paper.
A second round of testing was performed using an increased coating thickness to ensure full coverage of the paper surface. The second round of testing of the coated paper samples were tested according to ASTM D-3273. In this study, the duration remained the same (28 days), but the fungal species were not directly inoculated on the surface. Rather, they were maintained in the humidity chamber as spores that would then land on the surface of the coated paper as in a real world example. The results of this study are outlined in FIG. 6.

Data set [2] is described as follows: Solubility of additives used in polymerization. It counts as physicochemical.
Data set [3] in a line: Stability of additive under polymerization conditions. To be noted: incorporated in relatively high amounts. It counts as physicochemical. An excerpt:
Ideally, the materials are substantially unreactive during the polymerization conditions, so they are not degraded during polymerization. In some embodiments, low levels of additive might be observed, whether due to degradation, or difficulty in extraction from the polymer latex. In any case, retention of the additive in the latex leads to retention of antifungal properties in the finished paper.
The polymerization temperature was investigated as a potential contributor to degradation, and it was kept as low as was feasible (typically <70° C.). The samples were stripped at the end of polymerization to the desired solids content.

Data set [4] concerns fungal species. Put plainly: 30-III fungal test on 1"X1" chip of dried latex, 7 days. The following applies: 7 day incubation, FIG. 5. It counts as cell-based. An excerpt: FIG. 5 is a graph showing the results of a 30-III fungal test, based on making a 1″X1″ chip of the dried latex, inoculating the fungal species directly on to the sample, and then observing its growth after 7 days.
The 30-III fungal test was based on making a 1″X1″ chip of the dried latex and inoculating the fungal species directly on to the sample and then observing its growth after 7 days.

The mark [5] stands for this setting: additives used in polymerization, solubility in monomer or water.

In the case of `Cc1ccc(S(=O)(=O)C(I)I)cc1` [Amical AF, Diiodomethyltoluyl sulfone], the “Antifungal effectiveness, ASTM D-3273” value in the data set with fungal species [1] was “effective”. The Solubility result in data set [2] (setting [5]) is listed as “Limited”. In addition, the Degradation during polymerization entry in data set [3] is given as “degraded”. Besides, the “Fungal inhibition, 30-III test” value in the data set with fungal species [4] was “some fungal inhibition”.

Turning to `[Na+].[O-]c1ccccc1-c1ccccc1` [Microban P2, Sodium orthophenyl phenate], the Solubility result in data set [2] (setting [5]) is “Solid. Water”.

As to `CCCC1COC(Cn2cncn2)(c2ccc(Cl)cc2Cl)O1` (stereo not shown) [Microban PZ, Propiconazole], the Solubility result in data set [2] is given as “Fairly soluble”.

With `CC(C)(C)C(O)(CCc1ccc(Cl)cc1)Cn1cncn1` (stereo not shown) [Microban TZ, Tebuconazole], the Solubility result in data set [2] (setting [5]) was “Fairly soluble”.

For the molecule `Oc1cc(Cl)ccc1Oc1ccc(Cl)cc1Cl` [Triclosan, Chlorodiphenyl ether], in data set [2] (setting [5]), the Solubility entry is “Solid. Fairly”.

Turning to Zinc pyrithione [Microban Z01], in the data set with fungal species [1], the “Antifungal effectiveness, ASTM D-3273” value is “did not perform well”. Besides, the “Fungal inhibition, 30-III test” value in the data set on fungal species [4] is recorded as “performed well”.
